Measured values taken from patent publication US12624066B2, “Inhibitors of coronavirus protease” (SUNSHINE BIOPHARMA INC., priority 2020, dated 2026).
Square brackets hold non-standard residues; d marks the D form. Peptide text beside a SMILES is read from it.

Each compound was assayed against SARS-CoV-2-PLpro enzyme (Severe acute respiratory syndrome coronavirus 2, UniProt P0DTD1) (assay: SARS-CoV-2-PLpro enzyme inhibition assay). Conditions: read-out: Percent inhibition.
Assay type: biochemical
Experimental: The inhibition assay was carried out as follows. 1 μM SARS-CoV-2-PLpro enzyme was incubated with 25 μM Arg-Leu-Arg-Gly-Gly-AMC substrate and 100 μM of the inhibitor peptide tested, in reaction buffer (100 mM NaCl, 50 mM HEPES [pH=7.5], 0.01 mg/mL bovine serum albumin, and 5 mM DTT) to a final volume of 50 μL. A control reaction with no inhibitory peptide was included and serves as the basis for “no inhibition”. Each reaction was carried in triplicate. The percentage inhibition was calculated by […].

| Compound | inhibition at 100 µM [%] |
| --- | --- |
| CC(C)C[C@@H](NC(=O)[C@@H](N)CCCNC(=N)N)C(=O)N[C@@H](CCCNC(=N)N)C(=O)NCC(=O)NCC(=O)O [Arg - Leu - Arg - Gly - Gly] | 10 to 15 |
| CC(C)C[C@@H](NC(=O)[C@@H](N)CCCNC(=N)N)C(=O)N[C@@H](CCCCN)C(=O)NCC(=O)NCC(=O)O [Arg - Leu - Lys - Gly - Gly] (H-R[dL]KGG-OH) | 5 to 10 |
| CC(C)C[C@@H](NC(=O)[C@@H](N)CCC(=O)O)C(=O)N[C@@H](CC(N)=O)C(=O)NCC(=O)NCC(=O)O [Glu - Leu - Asn - Gly - Gly] (H-E[dL]NGG-OH) | 0 |
| CC(C)C[C@@H](NC(=O)[C@@H](N)CO)C(=O)N[C@@H](CCCCN)C(=O)NCC(=O)NCC(=O)O [Ser - Leu - Lys - Gly - Gly] (H-S[dL]KGG-OH) | 0 |
